From ChEMBL document CHEMBL1201862, “PubChem BioAssay data set” (2004)
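Interpolation was linear, between the two tested concentrations surrounding the appropriate level; five concentrations were tested over 48 hours in 96-well plates. GI50: concentration for 50% inhibition of growth.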 Calls of active or inactive are those of the source. No stated cut-off is given here; in the data, active = GI50 up to about 1.1 µM and inactive = higher.

Assays:
Experiment in all cases: growth of human tumour cells (NCI), 48 h
SK-MEL-2 = system: SK-MEL-2
SR = system: SR
OVCAR-4 = system: OVCAR-4
ACHN = system: ACHN
KM12 = system: KM12
COLO 205 = system: COLO 205
UO-31 = system: UO-31
Hs-578T = system: Hs-578T
U-251 = system: U-251
OVCAR-5 = system: OVCAR-5
SK-OV-3 = system: SK-OV-3
MOLT-4 = system: MOLT-4
RXF 393 = system: RXF 393
MDA-MB-435 = system: MDA-MB-435
OVCAR-8 = system: OVCAR-8
SN12C = system: SN12C
CAKI-1 = system: CAKI-1
MDA-N = system: MDA-N
M14 = system: M14

Row | SMILES | GI50 (SK-MEL-2) | GI50 (SR) | GI50 (OVCAR-4) | GI50 (ACHN) | GI50 (KM12) | GI50 (COLO 205) | GI50 (UO-31) | GI50 (Hs-578T) | GI50 (U-251) | GI50 (OVCAR-5) | GI50 (SK-OV-3) | GI50 (MOLT-4) | GI50 (RXF 393) | GI50 (MDA-MB-435) | GI50 (OVCAR-8) | GI50 (SN12C) | GI50 (CAKI-1) | GI50 (MDA-N) | GI50 (M14)
1 | C=CCn1c(=O)c(C)cn(/C(=C/C(=O)OCC)C(=O)OCC)c1=O | 23.2 µM (inactive) | 5.33 µM (inactive) | 18.3 µM (inactive) | 9.08 µM (inactive) | 17.2 µM (inactive) | 4.55 µM (inactive) | 15.7 µM (inactive) | 24.5 µM (inactive) | 14.4 µM (inactive) | 16.4 µM (inactive) | 60 µM (inactive) | 5.87 µM (inactive) | 14 µM (inactive) | 13.5 µM (inactive) | 17.6 µM (inactive) | 14.2 µM (inactive) | 1.85 µM (inactive) | 13.9 µM (inactive) | 13.7 µM (inactive)
2 | CC12CCC(CC(=O)/C1=C(/Br)I)C2(C)C (stereo unspecified) | 13.7 µM (inactive) | 15.8 µM (inactive) | 15.1 µM (inactive) | 18.2 µM (inactive) | 17.9 µM (inactive) | 17.2 µM (inactive) | 18.2 µM (inactive) | 18.7 µM (inactive) | – | 2.02 µM (inactive) | 20.7 µM (inactive) | 7.18 µM (inactive) | 4.6 µM (inactive) | 13.7 µM (inactive) | 17.8 µM (inactive) | 15.8 µM (inactive) | 16.9 µM (inactive) | 12.2 µM (inactive) | 14.4 µM (inactive)
3 | CC(OC(=O)C(CC(=O)OC(C)(C)C)NC(=O)OC(C)(C)C)C(=O)OCc1ccccc1 (stereo unspecified) | > 100 µM (inactive) | > 100 µM (inactive) | > 100 µM (inactive) | > 100 µM (inactive) | > 100 µM (inactive) | > 100 µM (inactive) | > 100 µM (inactive) | > 100 µM (inactive) | > 100 µM (inactive) | > 100 µM (inactive) | > 100 µM (inactive) | > 100 µM (inactive) | > 100 µM (inactive) | > 100 µM (inactive) | > 100 µM (inactive) | > 100 µM (inactive) | > 100 µM (inactive) | > 100 µM (inactive) | > 100 µM (inactive)
4 | C=C1C(=O)C2=C[C@H]1C[C@H](O)C(=O)[C@]1(C)CCCC(C)(C)[C@H]1C[C@H]2O | 7.19 µM (inactive) | 0.358 µM (active) | 3.94 µM (inactive) | 0.452 µM (active) | 2.93 µM (inactive) | 0.638 µM (active) | 2.06 µM (inactive) | 2.76 µM (inactive) | 1.32 µM (inactive) | 1.93 µM (inactive) | 12.8 µM (inactive) | 0.979 µM (active) | 0.315 µM (active) | 2.65 µM (inactive) | 2.33 µM (inactive) | 1.77 µM (inactive) | 1.48 µM (inactive) | 1.93 µM (inactive) | 1.52 µM (inactive)
5 | CC[C@H](C)C1=C(O)[N@+]2([O-])Oc3ccc(-c4c(O)c(O)c(-c5ccc(O)cc5)c(OC(C)=O)c4OC(C)=O)cc3O[C@]2([C@@H](C)CC)C(=O)N1O | > 50 µM (inactive) | 23.5 µM (inactive) | 11.6 µM (inactive) | 22.5 µM (inactive) | 33.7 µM (inactive) | > 50 µM (inactive) | 33.8 µM (inactive) | 26.5 µM (inactive) | 26.7 µM (inactive) | > 50 µM (inactive) | 15.9 µM (inactive) | 16.3 µM (inactive) | > 50 µM (inactive) | 28.1 µM (inactive) | 27 µM (inactive) | 19.3 µM (inactive) | 28.8 µM (inactive) | 29.2 µM (inactive) | 30.2 µM (inactive)
6 | O=C1OCC(O)=C1C(c1ccc(Cl)cc1)c1cc2c(cc1O)OCO2 (stereo unspecified) | > 100 µM (inactive) | > 100 µM (inactive) | > 100 µM (inactive) | > 100 µM (inactive) | > 100 µM (inactive) | > 100 µM (inactive) | > 100 µM (inactive) | > 100 µM (inactive) | – | > 100 µM (inactive) | > 100 µM (inactive) | > 100 µM (inactive) | > 100 µM (inactive) | > 100 µM (inactive) | – | > 100 µM (inactive) | > 100 µM (inactive) | > 100 µM (inactive) | > 100 µM (inactive)
7 | O=P1(C(O)c2ccccc2)N(Cc2ccccc2)[C@@H]2CCCC[C@H]2N1Cc1ccccc1 (stereo partly specified) | 27 µM (inactive) | 24.3 µM (inactive) | 12.3 µM (inactive) | 30.8 µM (inactive) | 37.3 µM (inactive) | 14.8 µM (inactive) | 33 µM (inactive) | 20 µM (inactive) | 31.3 µM (inactive) | 24.8 µM (inactive) | 58.2 µM (inactive) | 19.6 µM (inactive) | 31.4 µM (inactive) | 23.2 µM (inactive) | 31 µM (inactive) | 20.9 µM (inactive) | 64.4 µM (inactive) | 31.9 µM (inactive) | 24.8 µM (inactive)
8 | C[C@]12CC[C@H]3[C@@H](CCC4=C[C@@H](N5CCCC5)CC[C@@]43C)[C@@H]1C/C(=C\c1ccncc1)[C@@H]2O | 16.4 µM (inactive) | 3.16 µM (inactive) | 18 µM (inactive) | 17 µM (inactive) | 9.57 µM (inactive) | 6.32 µM (inactive) | 4.92 µM (inactive) | 13.8 µM (inactive) | 12.6 µM (inactive) | 18 µM (inactive) | 18 µM (inactive) | 7.73 µM (inactive) | 5.16 µM (inactive) | 10.3 µM (inactive) | 24.9 µM (inactive) | 14.1 µM (inactive) | 28.8 µM (inactive) | 11.4 µM (inactive) | 2.39 µM (inactive)
9 | CCOC(=O)c1cc2c3c(c(C(C)=O)c(O)c2[nH]1)N(CC(C)CC)CC3 (stereo unspecified) | > 100 µM (inactive) | 27.4 µM (inactive) | 43.1 µM (inactive) | > 100 µM (inactive) | 56.4 µM (inactive) | > 100 µM (inactive) | 83.4 µM (inactive) | 8.97 µM (inactive) | 78.2 µM (inactive) | – | 60.8 µM (inactive) | 26.3 µM (inactive) | 34.6 µM (inactive) | 44.3 µM (inactive) | 61.7 µM (inactive) | > 100 µM (inactive) | 64.9 µM (inactive) | 35.7 µM (inactive) | –
10 | CCC(=O)Nc1ccc(N2C(=O)/C(=C/c3ccc(O)c(OC)c3)N=C2c2ccccc2)cc1 | 23.6 µM (inactive) | 13.2 µM (inactive) | 9.91 µM (inactive) | 23.3 µM (inactive) | 33.7 µM (inactive) | – | 25.5 µM (inactive) | 61.1 µM (inactive) | – | 40.8 µM (inactive) | 31 µM (inactive) | 11.3 µM (inactive) | 10.9 µM (inactive) | 29.5 µM (inactive) | 44.5 µM (inactive) | 54.5 µM (inactive) | 17.3 µM (inactive) | 31.3 µM (inactive) | 19.7 µM (inactive)
11 | CC1(C)N=c2c(ncn2-c2ccccc2)=C(C(N)=O)N1 | > 100 µM (inactive) | > 100 µM (inactive) | > 100 µM (inactive) | > 100 µM (inactive) | > 100 µM (inactive) | > 100 µM (inactive) | – | > 100 µM (inactive) | > 100 µM (inactive) | > 100 µM (inactive) | > 100 µM (inactive) | – | > 100 µM (inactive) | > 100 µM (inactive) | > 100 µM (inactive) | > 100 µM (inactive) | > 100 µM (inactive) | > 100 µM (inactive) | > 100 µM (inactive)
12 | O=C1c2ccccc2C(=O)c2sc(Nc3cc(Cl)ccc3Cl)nc21 | 11.4 µM (inactive) | 2.52 µM (inactive) | 4.16 µM (inactive) | 5.3 µM (inactive) | 12.2 µM (inactive) | 16 µM (inactive) | 6.03 µM (inactive) | 9.25 µM (inactive) | 6.56 µM (inactive) | 20.9 µM (inactive) | 16 µM (inactive) | 2.52 µM (inactive) | 14.3 µM (inactive) | 2.01 µM (inactive) | 3.77 µM (inactive) | 2.08 µM (inactive) | 5.02 µM (inactive) | 1.82 µM (inactive) | 4.69 µM (inactive)
13 | OC1(c2ccc(Cl)cc2)C(N2CCCC2)c2ccccc2C2=NCCN21 (stereo unspecified) | 21.9 µM (inactive) | 15.1 µM (inactive) | 20 µM (inactive) | 30.3 µM (inactive) | 20.1 µM (inactive) | 11.5 µM (inactive) | 33 µM (inactive) | 29.9 µM (inactive) | 37.4 µM (inactive) | 43.7 µM (inactive) | 20.9 µM (inactive) | 16 µM (inactive) | 29.1 µM (inactive) | 25.6 µM (inactive) | 23.9 µM (inactive) | 30.7 µM (inactive) | 26.5 µM (inactive) | 17.8 µM (inactive) | 15.8 µM (inactive)
14 | COc1ccc(-c2c(C#N)c(=O)nc(SC)n2C2OCC(OC(C)=O)C(OC(C)=O)C2OC(C)=O)cc1 (stereo unspecified) | > 100 µM (inactive) | 5.11 µM (inactive) | > 100 µM (inactive) | 75 µM (inactive) | > 100 µM (inactive) | > 100 µM (inactive) | 38.6 µM (inactive) | 31.6 µM (inactive) | 57.8 µM (inactive) | > 100 µM (inactive) | > 100 µM (inactive) | 21.3 µM (inactive) | > 100 µM (inactive) | > 100 µM (inactive) | 90.6 µM (inactive) | > 100 µM (inactive) | > 100 µM (inactive) | 83.4 µM (inactive) | > 100 µM (inactive)
15 | NC(=S)N1N=C(c2ccc3c(c2)CCC3)CC1c1ccccc1 (stereo unspecified) | 13.7 µM (inactive) | 25.3 µM (inactive) | 7.18 µM (inactive) | 27.9 µM (inactive) | 11.4 µM (inactive) | 18.3 µM (inactive) | 29.9 µM (inactive) | 6.12 µM (inactive) | 20.4 µM (inactive) | 32.2 µM (inactive) | 28.6 µM (inactive) | 8.15 µM (inactive) | 2.88 µM (inactive) | 20.2 µM (inactive) | 28.3 µM (inactive) | 24.7 µM (inactive) | 21.3 µM (inactive) | 22.9 µM (inactive) | 26.7 µM (inactive)
